Columns and labels:
Assay type in all cases: in vivo
[1] = system: ivyleaf morningglory (Ipomoea hederacea, IPOHE); assay: Pre-emerge test, greenhouse herbicide activity screening
Summary of the method: (§1)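 Plants grown in 10 cm pots of sandy loam mix received acetone-dissolved compounds through a moving flat-fan nozzle. Doses ranged from 15 to 1000 g ai/ha. Pre-emerge pots were seeded one day earlier, post-emerge pots 8–21 days earlier. Fourteen days on, each pot was graded 0–100 for damage.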

[2] = system: lambsquarters (Chenopodium album, CHEAL); assay: as above
Summary of the method: as §1

[3] = system: green foxtail (Setaria viridis, SETVI); assay: as above
Summary of the method: as §1

[4] = system: johnsongrass (Sorghum halepense, SORHA); assay: as above
Summary of the method: as §1

[5] = system: large crabgrass (Digitaria sanguinalis, DIGSA); assay: as above
Summary of the method: as §1

[6] = system: barnyardgrass (Echinochloa crus-galli, ECHCG); assay: as above
Summary of the method: as §1

[7] = system: velvetleaf (Abutilon theophrasti, ABUTH); assay: as above
Summary of the method: as §1

[8] = system: sicklepod (Cassia obtusifolia, CASOB); assay: as above
Summary of the method: as §1

[9] = system: redroot pigweed (Amaranthus retroflexus, AMARE); assay: as above
Summary of the method: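 Visual ratings on a 0-100 scale (0 no damage, 100 all plants dead) were taken at 14 days after treatment. Rates of 15-1000 g ai/ha in acetone, 187 l/ha, were sprayed onto soil one day after planting (pre-emerge) or onto 2-3 leaf plants with 0.25% v/v surfactant (post-emerge).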

[10] = system: upland rice (Oryza sp., var. Tebonnet, RICE); assay: Pre-emerge test, crop safety
Summary of the method: (§2)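 Compounds in acetone were track-sprayed at 187 l/ha, 15–1000 g ai/ha, onto sandy loam pots. Pre-emerge seeds were sown one day before spraying, with surface watering afterwards. Post-emerge plants were at the 2–3 leaf stage and sprayed with 0.25% v/v non-ionic surfactant. Injury was rated 0–100 at 14 days.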

[11] = system: field corn (Zea mays L., var. Dekalb 535, CORN); assay: Pre-emerge test, crop safety
Summary of the method: as §2

[12] = pre-emerge, rate 63 g ai/ha, phytotoxicity rating 0-100 at 14 days after application
[13] = pre-emerge, rate 250 g ai/ha, phytotoxicity rating 0-100 at 14 days after application
[14] = crop damage, pre-emerge, rate 63 g ai/ha, phytotoxicity rating 0-100 at 14 days after application
[15] = crop damage, pre-emerge, rate 250 g ai/ha, phytotoxicity rating 0-100 at 14 days after application
[16] = 63 g ai/ha, phytotoxicity rating 0-100, 14 days after application
[17] = 250 g ai/ha, phytotoxicity rating 0-100, 14 days after application
[18] = 63 g ai/ha, crop damage rating 0-100, 14 days after application
[19] = 250 g ai/ha, crop damage rating 0-100, 14 days after application

Structure (SMILES): COc1c(Cl)cc(F)c(-n2c(=O)n3n(c2=O)CCCC3)c1NC(C)=O [9-5]
- Pre-emerge Herbicidal Activity IPOHE [1, 12]: 70
- Pre-emerge Herbicidal Activity IPOHE [1, 13]: 100
- Pre-emerge Herbicidal Activity CHEAL [2, 12]: 100
- Pre-emerge Herbicidal Activity CHEAL [2, 13]: 100
- Pre-emerge Herbicidal Activity SETVI [3, 12]: 20
- Pre-emerge Herbicidal Activity SETVI [3, 13]: 60
- Pre-emerge Herbicidal Activity SORHA [4, 12]: 0
- Pre-emerge Herbicidal Activity SORHA [4, 13]: 20
- Pre-emerge Herbicidal Activity DIGSA [5, 12]: 10
- Pre-emerge Herbicidal Activity DIGSA [5, 13]: 40
- Pre-emerge Herbicidal Activity ECHCG [6, 12]: 0
- Pre-emerge Herbicidal Activity ECHCG [6, 13]: 30
- Pre-emerge Herbicidal Activity ABUTH [7, 12]: 100
- Pre-emerge Herbicidal Activity ABUTH [7, 13]: 100
- Pre-emerge Herbicidal Activity CASOB [8, 12]: 10
- Pre-emerge Herbicidal Activity CASOB [8, 13]: 80
- Pre-emerge Herbicidal Activity AMARE [9, 12]: 100
- Pre-emerge Herbicidal Activity AMARE [9, 13]: 100
- Pre-emerge Herbicidal Activity RICE [10, 14]: 25
- Pre-emerge Herbicidal Activity RICE [10, 15]: 60
- Pre-emerge Herbicidal Activity CORN [11, 14]: 0
- Pre-emerge Herbicidal Activity CORN [11, 15]: 10

Structure (SMILES): COc1c(Cl)cc(F)c(-n2c(=O)cc(C(F)(F)F)n(C)c2=O)c1NC(=O)N(Cc1ccccc1)c1ccccc1 [Compound 3-23]
- Pre-emerge Herbicidal Activity IPOHE [1, 16]: 0
- Pre-emerge Herbicidal Activity IPOHE [1, 17]: 0
- Pre-emerge Herbicidal Activity CHEAL [2, 16]: 0
- Pre-emerge Herbicidal Activity CHEAL [2, 17]: 70
- Pre-emerge Herbicidal Activity SETVI [3, 16]: 0
- Pre-emerge Herbicidal Activity SETVI [3, 17]: 0
- Pre-emerge Herbicidal Activity SORHA [4, 16]: 0
- Pre-emerge Herbicidal Activity SORHA [4, 17]: 0
- Pre-emerge Herbicidal Activity DIGSA [5, 16]: 0
- Pre-emerge Herbicidal Activity DIGSA [5, 17]: 0
- Pre-emerge Herbicidal Activity ECHCG [6, 16]: 0
- Pre-emerge Herbicidal Activity ECHCG [6, 17]: 0
- Pre-emerge Herbicidal Activity ABUTH [7, 16]: 0
- Pre-emerge Herbicidal Activity ABUTH [7, 17]: 40
- Pre-emerge Herbicidal Activity CASOB [8, 16]: 0
- Pre-emerge Herbicidal Activity CASOB [8, 17]: 0
- Pre-emerge Herbicidal Activity AMARE [9, 16]: 0
- Pre-emerge Herbicidal Activity AMARE [9, 17]: 0
- Pre-emerge Herbicidal Activity RICE [10, 18]: 0
- Pre-emerge Herbicidal Activity RICE [10, 19]: 0
- Pre-emerge Herbicidal Activity CORN [11, 18]: 0
- Pre-emerge Herbicidal Activity CORN [11, 19]: 0

Source: patent publication US6355799B1, “Substituted benzene compounds, process for their preparation, and herbicidal and defoliant compositions containing them” (ISK Americas Incorporated, priority 1997, dated 2002)
